In US20240132431A1, “METHOD FOR ALKYLATING ACIDIC FUNCTIONAL GROUP” (Chugai Seiyaku Kabushiki Kaisha, priority 2021, published 2024):

Target: T1, Bcl-2 protein (Recombinant Human Bcl-2 Protein) (Homo sapiens, UniProt P10415)
T1 construct: purchased Novus NBP2-34889
Assay: Binding evaluation of mixture library compounds to Bcl-2 using AS-MS (affinity selection mass spectrometry)
Conditions: for ASMS ratio (%) n = 1 / ASMS ratio (%) n = 2: ASMS Ratio(%)=(A−C)/B×100; for ASMS ratio (%) n = 1: replicate n = 1; for ASMS ratio (%) n = 2: replicate n = 2
Method: For one well of MICROPLATE, 96-well, PP, V-BOTTOM (Greiner bio-one, 651201), DMSO solutions of 12 mixtures (prepared to approximately 0.58 mM based on calculations from the average molecular weight of each mixture), in each of which 100 compounds are mixed, were each dispensed, and dispensed into a total of 12 wells, where the 12 mixtures are mixAI-B4J-01, mixAI-B1M-01, mixAI-B1K-01, mixAI-B10-01, mixAI-B1A-01, mixAI-B3A-01, mixAI-B21-01, mixAI-B2L-01, mixAI-B2N-01, mixAI-B2A-01, mixAI-B2Q-01, and mixAI-B2R-01 listed in [Table AI-03-B4J-01], [Table AI-03-B1M-01], [Table AI-03-B1K-01], [Table AI-03-B10-01], [Table AI-03-B1A-01], [Table AI-03-B3A-01], [Table AI-03-B2I-01], [Table AI-03-B2L-01], [Table AI-03-B2N-01], [Table AI-03-B2A-01], [Table AI-03-B2Q-01], and [AI-03-B2R-01] shown in Example 6. Using the LABCYTE ECHO® 555 Acoustic Dispensing System (BECKMAN COULTER), 70 nL was collected from each of the 12 wells into one arbitrary well to prepare a sample solution with 1200 compounds in the mixed state (the presence of 1152 compounds had already been identified when prepared in Example 6-5-3). (In the present specification, the mixture collected in this one well is referred to as one library.) Furthermore, a Bcl-2 protein (Novus, NBP2-34889, Recombinant Human Bcl-2 Protein, Lot E60145051) (19.2 μL) that had been prepared in advance to be 20.9 μM using a Tris-HCl buffer (25 mM Tris-HCl pH 7.4, 150 mM NaCl, 0.025% Tween-20, 1 mM DTT) was added to the well in which 1200 compounds (the presence of 1152 compounds had already been identified when prepared in Example 6-5-3) were dispensed (final compound concentration […], final Bcl-2 concentration 20 μM), and the mixture was incubated in the dark at 23° C. for 1 hour. Next, using the 96-well MacroSpin column, P-2 Material (Harvard, 74-5655) that had been swollen, conditioning of the 96-well MacroSpin column was performed three times by centrifugation with 200 μL of an assay buffer (25 mM Tris-HCl pH 7.4, 150 mM NaCl, 0.025% Tween-20, 1 mM DTT), 2000 XG, 4° C., 2 min. Subsequently, 20 μL of the sample after incubation was added to the 96-well MacroSpin column, P-2 Material, that had been conditioned, and SEC treatment was performed by centrifugation at 2000×G for 2 minutes. To the liquid passed from the SEC, 32 μL of a 1:1 mixed solution of acetonitrile and methanol (LC/MS grade, Fujifilm Wako Pure Chemical Corporation) was added, the mixture was centrifuged at 1800×G, 4° C., 5 min, and the supernatant was used as analysis sample ASMS (A), while a sample that had been prepared by the same operations at 1200 compounds/well and to which only the Tris-HCl buffer had been added without the Bcl-2 protein was incubated under the same conditions, no 96-well MacroSpin column treatment was performed, the same organic solvent was added, and the supernatant solution obtained by centrifugation was used as STD (B). Next, a sample that had been prepared by the same operations at 1200 compounds/well and to which only the Tris-HCl buffer had been added without the Bcl-2 protein was incubated under the same conditions, the same 96-well MacroSpin column treatment was performed, the same organic solvent was added, and the supernatant solution obtained by centrifugation was used as BK (C), and measured by reversed phase LC/MS.
Then, analysis of the 1200 compounds was carried out for samples A, B, and C with TraceFinder 5.1 (Thermo Fisher Scientific) and CHANCE Software (in-house), and the ASMS Ratio (%) was calculated according to the following calculation formula.
Calculation formula: ASMS Ratio(%)=(A−C)/B×100

[1] = AS-MS on the mixture of 1200 library compounds
[2] = AS-MS, mixture of 1200 compounds, Bcl-2

T1 sequence (P10415 whole entry): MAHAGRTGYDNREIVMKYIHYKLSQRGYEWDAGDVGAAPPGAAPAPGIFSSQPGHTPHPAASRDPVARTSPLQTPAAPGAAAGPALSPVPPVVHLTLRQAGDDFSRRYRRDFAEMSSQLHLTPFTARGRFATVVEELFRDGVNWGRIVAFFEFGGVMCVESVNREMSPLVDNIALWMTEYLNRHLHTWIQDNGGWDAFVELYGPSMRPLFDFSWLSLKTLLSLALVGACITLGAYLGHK

In the case of `CCOc1cncc(-c2ccc(CN3CCN(c4ccc(C(=O)N(CC)CC)cc4)CC3)cc2C)c1` [B4J048-01, 4-[4-[[4-(5-Ethoxypyridin-3-yl)-3-methylphenyl]methyl]piperazin-1-yl]-N,N-diethylbenzamide], the “ASMS ratio (%) n = 1” value [1] is reported as 1.2% and the “ASMS ratio (%) n = 2” value [1] is reported as −2.1%.

For `CCOc1cncc(-c2cnn(-c3cc(C(=O)N4CCN(c5ccc(C(=O)NCC(F)(F)F)cc5)CC4)cc(C(F)(F)F)c3)c2)c1` [B1K044-01, 4-[4-[3-[4-(5-Ethoxypyridin-3-yl)pyrazol-1-yl]-5-(trifluoromethyl)benzoyl]piperazin-1-yl]-N-(2,2,2-trifluoroethyl)benzamide], the “ASMS ratio (%) n = 1” value [2] was 2.6% and the “ASMS ratio (%) n = 2” value [2] was 1.0%.

`CCOc1cccc(-c2cc(CN3CCN(c4ccc(C(=O)NS(=O)(=O)CCC(F)(F)F)cc4)CC3)cc(OCC)c2)c1` [B2N055-01, 4-[4-[[3-Ethoxy-5-(3-ethoxyphenyl)phenyl]methyl]piperazin-1-yl]-N-(3,3,3-trifluoropropylsulfonyl)benzamide] was tested, and the “ASMS ratio (%)” value (n = 1) was 0.0% and the “ASMS ratio (%)” value (n = 2) was 0.0%.

With `CCOc1cncc(-c2ccc(CN3CCN(c4ccc(C(=O)NS(=O)(=O)c5ccc(NCCSc6ccccc6)c(C(F)(F)F)c5)nn4)CC3)c(OC)c2)c1` [B2R080-01, 6-[4-[[4-(5-Ethoxypyridin-3-yl)-2-methoxyphenyl]methyl]piperazin-1-yl]-N-[4-(2-phenylsulfanylethylamino)-3-(trifluoromethyl)phenyl]sulfonylpyridazine-3-carboxamide] the “ASMS ratio (%)” value (n = 1) was 16.7% and the “ASMS ratio (%)” value (n = 2) was 21.2%.

“6-[4-[3-[4-(3-Ethoxyphenyl)pyrazol-1-yl]-5-(trifluoromethyl)benzoyl]piperazin-1-yl]-N-propylpyridazine-3-carboxamide [B1M024-01]” was tested, and the “ASMS ratio (%) n = 1” value [2] was 0.0% and the “ASMS ratio (%) n = 2” value [2] was 0.0%.

For “6-[4-[3-[2-(3-Ethoxyphenyl)ethynyl]-5-(trifluoromethyl)benzoyl]piperazin-1-yl]-N-propylpyridazine-3-carboxamide [B1M013-01]”, the “ASMS ratio (%) n = 1” value [2] was 2.9% and the “ASMS ratio (%) n = 2” value [2] was −1.1%.

In the case of `CCOc1cccc(-c2ccc(CN3CCN(c4ccc(C(=O)Nc5ccc(OC)cc5)cc4)CC3)c(CC)c2)c1` [B1O049-01, 4-[4-[[4-(3-Ethoxyphenyl)-2-ethylphenyl]methyl]piperazin-1-yl]-N-(4-methoxyphenyl)benzamide], the “ASMS ratio (%) n = 1” value [1] is reported as 6.1% and the “ASMS ratio (%) n = 2” value [1] is reported as 0.0%.

With `CCOc1cncc(-c2csc(C(=O)N3CCN(c4ccc(C(=O)NS(=O)(=O)CCC(F)(F)F)cc4)CC3)c2)c1` [B2N024-01, 4-[4-[4-(5-Ethoxypyridin-3-yl)thiophene-2-carbonyl]piperazin-1-yl]-N-(3,3,3-trifluoropropylsulfonyl)benzamide] the “ASMS ratio (%)” value (n = 1) was 0.0% and the “ASMS ratio (%)” value (n = 2) was 0.0%.

For `CCOc1cncc(C#Cc2cc(C(=O)N3CCN(c4ccc(C(=O)Nc5ccc(OC)cc5)nn4)CC3)cc(C(F)(F)F)c2)c1` [B1O020-01, 6-[4-[3-[2-(5-Ethoxypyridin-3-yl)ethynyl]-5-(trifluoromethyl)benzoyl]piperazin-1-yl]-N-(4-methoxyphenyl)pyridazine-3-carboxamide], the “ASMS ratio (%) n = 1” value [1] was 8.6% and the “ASMS ratio (%) n = 2” value [1] was −0.5%.

`CCOc1cncc(-c2cnn(-c3cc(C(=O)N4CCN(c5ccc(C(=O)NS(C)(=O)=O)nn5)CC4)cc(C(F)(F)F)c3)c2)c1` [B2I022-01, 6-[4-[3-[4-(5-Ethoxypyridin-3-yl)pyrazol-1-yl]-5-(trifluoromethyl)benzoyl]piperazin-1-yl]-N-methylsulfonylpyridazine-3-carboxamide] was tested, and the “ASMS ratio (%) n = 1” value (AS-MS, mixture library, Bcl-2) was 0.0% and the “ASMS ratio (%) n = 2” value (AS-MS, mixture library, Bcl-2) was 0.0%.

With `CCOc1cccc(-c2ccccc2CCC(=O)N2CCN(c3ccc(C(=O)NS(=O)(=O)CCC(F)(F)F)cc3)CC2)c1` [B2N033-01, 4-[4-[3-[2-(3-Ethoxyphenyl)phenyl]propanoyl]piperazin-1-yl]-N-(3,3,3-trifluoropropylsulfonyl)benzamide] the “ASMS ratio (%)” value (n = 1) was 0.0% and the “ASMS ratio (%)” value (n = 2) was 0.0%.

With “4-[4-[[2-(5-Ethoxypyridin-3-yl)phenyl]methyl]piperazin-1-yl]-N-propylbenzamide [B1M041-01]” the “ASMS ratio (%) n = 1” value [2] was 0.7% and the “ASMS ratio (%) n = 2” value [2] was −3.5%.

For `CCOc1cccc(-c2ccc(C(=O)N3CCN(c4ccc(C(=O)NS(=O)(=O)c5ccc(NCCSc6ccccc6)c([N+](=O)[O-])c5)nn4)CC3)cc2F)c1` [B2Q005-01, 6-[4-[4-(3-Ethoxyphenyl)-3-fluorobenzoyl]piperazin-1-yl]-N-[3-nitro-4-(2-phenylsulfanylethylamino)phenyl]sulfonylpyridazine-3-carboxamide], the “ASMS ratio (%) n = 1” value (AS-MS, mixture library, Bcl-2) was 12.5% and the “ASMS ratio (%) n = 2” value (AS-MS, mixture library, Bcl-2) was 15.3%.

In the case of `CCOc1cncc(-c2ccc(C(=O)N3CCN(c4ccc(C(=O)NS(=O)(=O)C(C)(C)C)nn4)CC3)cc2C)c1` [B2L004-01, N-tert-Butylsulfonyl-6-[4-[4-(5-ethoxypyridin-3-yl)-3-methylbenzoyl]piperazin-1-yl]pyridazine-3-carboxamide], the “ASMS ratio (%)” value (n = 1) is reported as 5.5% and the “ASMS ratio (%)” value (n = 2) is reported as 9.3%.

In the case of `CCOc1cccc(-c2csc(C(=O)N3CCN(c4ccc(C(=O)NCC56CC7CC(CC(C7)C5)C6)nn4)CC3)c2)c1` [B1A001-01, N-(1-Adamantylmethyl)-6-[4-[4-(3-ethoxyphenyl)thiophene-2-carbonyl]piperazin-1-yl]pyridazine-3-carboxamide], the “ASMS ratio (%) n = 1” value [2] is reported as 17.6% and the “ASMS ratio (%) n = 2” value [2] is reported as −0.7%.

With `CCOc1cccc(-c2ccc(CN3CCN(c4ccc(C(=O)NS(=O)(=O)c5ccc(NCCSc6ccccc6)c(C(F)(F)F)c5)cc4)CC3)c3ccccc23)c1` [B2R065-01] the “ASMS ratio (%)” value (n = 1) was 3.8% and the “ASMS ratio (%)” value (n = 2) was 0.3%.

With `CCOc1cncc(-c2ccc(C(=O)N3CCN(c4ccc(C(=O)N(CC)CC)nn4)CC3)c3ccccc23)c1` [B4J014-01, 6-[4-[4-(5-Ethoxypyridin-3-yl)naphthalene-1-carbonyl]piperazin-1-yl]-N,N-diethylpyridazine-3-carboxamide] the “ASMS ratio (%) n = 1” value [1] was 0.0% and the “ASMS ratio (%) n = 2” value [1] was −0.8%.

`CCOc1cccc(-c2ccccc2CN2CCN(c3ccc(C(=O)NS(C)(=O)=O)nn3)CC2)c1` [B2I071-01, 6-[4-[[2-(3-Ethoxyphenyl)phenyl]methyl]piperazin-1-yl]-N-methylsulfonylpyridazine-3-carboxamide] was tested, and the “ASMS ratio (%)” value (n = 1) was −1.2% and the “ASMS ratio (%)” value (n = 2) was −1.9%.
